# Measurements as given in US11104672B2, “Polymorphs” (Syngenta Participations AG, priority 2017, dated 2021).
# Assay: Stability of polymorphs: stirring in dimethyl carbonate, crystals characterised by DSC and pXRD
# Assay type: physicochemical
# Details: stirred in 5 ml dimethyl carbonate for two days, crystals isolated, air dried
# Experimental: Powder X-ray diffraction analysis of solid material was carried out using the Bruker D8 powder diffractometer at room temperature and at relative humidities above 40%. Samples were mounted in Perspex sample holders and the samples flattened. The sample holder was rotated and X-rays were collected from 4° to 34° 2-theta, with a scan time of 25 to 30 minutes depending on the pattern intensity.
# DSC was carried out using a Mettler Toledo DSC1. A sample loading of around 5 mg was used and this was heated from 25° C. to 160° C. at a rate of 10° C./minute. The lid of the DSC crucible was pierced to allow the escape of any gas formed during the heating of the sample.
# A sample of the polymorph designated Form A(c) was stirred in 5 ml dimethyl carbonate for two days. The crystals were isolated, air dried and characterised by DSC and pXRD.
compound,measurement,value
CCN1OC[C@@H](NC(=O)c2ccc(C3=NO[C@@](c4cc(Cl)c(F)c(Cl)c4)(C(F)(F)F)C3)cc2C)C1=O [Form A(c)],Polymorphic stability (solid form found after stirring),all of the Form A(c) had converted into Form (A)a
